Source: patent US20080114038A1 (priority 2004, published 2008)

Assays:
COX-1 = COX-1 (Homo sapiens, UniProt P23219); settings: read-out: concentration responsible for the inhibition of 50% of the production of TXA2 (IC50); human whole blood without anticoagulant, 37° C., 1 hour, serum
[1] = test system: edema of the paw induced by carragenine; assay: Edema of rat paws induced by carragenine; type: in vivo, male rats of the Wistar type; settings: i.p. 30 minutes before carragenine 1%; molar dose equivalent to diclofenac; paw volume up to 4 hours
Experimental: For the performance of this one test, animals, such as, for example, male rats of the Wistar type were used, which weighed between 150-180 g. These rats were acquired from CEMIB/UNICAMP.
Five rats were treated with the diclofenac, five rats with the modified diclofenac and five rats with the DMSO vehicle.
After a period of approximately 30 minutes, the animals were inoculated with an intraplantary injection of approximately 0.1 mL of a solution of carragenine 1% in saline solution, at the right hind paw, while the contralateral paw received the same volume but only of the saline solution.
The quantification of the volume of the paw was performed by means of an adequate instrument, such as, for example a pletismometer. The volume of the paws was checked before the administration of the carragenine (T0) and after 30 minutes, 1, 2, 3 and 4 hours. The T0 value was subtracted from the other values arrived at.

COX-1, sequence (P23219 24-599): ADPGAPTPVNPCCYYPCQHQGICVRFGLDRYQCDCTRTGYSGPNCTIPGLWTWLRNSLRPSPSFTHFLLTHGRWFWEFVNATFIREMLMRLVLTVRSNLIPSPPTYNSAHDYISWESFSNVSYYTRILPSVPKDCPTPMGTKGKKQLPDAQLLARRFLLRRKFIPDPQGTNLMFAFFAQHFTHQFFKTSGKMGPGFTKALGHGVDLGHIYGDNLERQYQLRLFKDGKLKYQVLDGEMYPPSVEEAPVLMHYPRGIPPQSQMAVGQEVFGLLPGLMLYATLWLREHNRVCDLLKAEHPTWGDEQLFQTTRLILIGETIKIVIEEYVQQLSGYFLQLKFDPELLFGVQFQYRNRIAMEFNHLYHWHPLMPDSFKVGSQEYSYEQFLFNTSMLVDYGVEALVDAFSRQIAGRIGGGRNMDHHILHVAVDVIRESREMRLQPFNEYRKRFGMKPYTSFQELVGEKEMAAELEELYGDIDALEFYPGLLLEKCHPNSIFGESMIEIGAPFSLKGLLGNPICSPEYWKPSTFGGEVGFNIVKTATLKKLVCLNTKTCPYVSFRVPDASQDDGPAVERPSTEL

O=C(Cc1ccccc1Nc1c(Cl)cccc1Cl)OCc1ccc2c(c1)no[n+]2[O-] [modified diclofenac, [2-(2,6-dichloro-phenylamino)-phenyl]-acetic acid 1-oxy-benzo[1,2,5]oxadiazol-5-ylmethyl ester] was tested, and the IC50 (COX-1) was ~40.4 µM and the “inhibition of the edema of the paw induced by carragenine (paw volume, FIG. 1)” value [1] was “capable of inhibiting the edema of the paw induced by carragenine in the same way that the standard diclofenac”.
